# In EP3807270B1, “NOVEL HETEROARYL HETEROCYCLYL COMPOUNDS FOR THE TREATMENT OF AUTOIMMUNE DISEASE” (F. Hoffmann-La Roche AG, priority 2018, dated 2019):
# Target: T1, hTLR9 (Homo sapiens, UniProt Q9NR96)
# T1 sequence (Q9NR96 26-1032): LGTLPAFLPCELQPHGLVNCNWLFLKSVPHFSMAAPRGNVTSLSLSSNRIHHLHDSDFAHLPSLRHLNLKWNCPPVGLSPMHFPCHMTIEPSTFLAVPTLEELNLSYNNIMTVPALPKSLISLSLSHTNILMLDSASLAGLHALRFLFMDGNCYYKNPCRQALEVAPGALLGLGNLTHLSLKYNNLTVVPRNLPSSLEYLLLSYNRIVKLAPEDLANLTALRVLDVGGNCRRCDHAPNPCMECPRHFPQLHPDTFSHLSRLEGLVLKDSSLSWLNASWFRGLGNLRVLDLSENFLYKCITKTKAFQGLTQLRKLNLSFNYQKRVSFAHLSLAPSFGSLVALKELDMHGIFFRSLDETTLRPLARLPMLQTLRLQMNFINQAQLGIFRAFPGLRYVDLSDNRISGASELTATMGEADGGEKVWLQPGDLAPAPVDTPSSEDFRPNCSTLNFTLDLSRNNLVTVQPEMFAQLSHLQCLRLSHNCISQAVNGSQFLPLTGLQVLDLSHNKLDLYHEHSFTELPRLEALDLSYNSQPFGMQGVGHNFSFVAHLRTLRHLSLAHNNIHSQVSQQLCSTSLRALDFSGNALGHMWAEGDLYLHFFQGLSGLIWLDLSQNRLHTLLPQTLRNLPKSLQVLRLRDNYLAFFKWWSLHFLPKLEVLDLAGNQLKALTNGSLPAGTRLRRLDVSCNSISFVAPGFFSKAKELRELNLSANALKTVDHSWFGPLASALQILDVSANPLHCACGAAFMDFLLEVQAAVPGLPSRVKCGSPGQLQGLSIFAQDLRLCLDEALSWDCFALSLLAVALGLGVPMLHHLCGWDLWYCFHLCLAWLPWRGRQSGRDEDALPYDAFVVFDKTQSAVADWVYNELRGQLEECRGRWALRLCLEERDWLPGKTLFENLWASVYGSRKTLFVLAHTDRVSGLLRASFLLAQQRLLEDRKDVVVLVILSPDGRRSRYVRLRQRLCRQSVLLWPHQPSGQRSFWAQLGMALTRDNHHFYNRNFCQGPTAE
# Assay: HEK293-Blue-hTLR-9 cells assay (SEAP reporter, ODN2006 stimulation)
# Format: cell-based
# Parameters: host or cells: HEK293 (HEK-Blue)
# Conditions: HEK293-Blue-hTLR9 cells, ODN2006, 20 hrs; read-out: HEK/hTLR9 IC50
# Summary of the method: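 HEK293-Blue-hTLR9 cells (250,000-450,000 cells/mL) in DMEM with 10% FBS were treated with serially diluted compound (1% DMSO final) plus ODN2006 for 20 hrs at 37 °C. Supernatant SEAP activity was measured with QUANTI-Blue substrate for 2 hrs at 37 °C, reading absorbance at 620-655 nm.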
row,Compound,IC50
1,"C[C@@H]1CN(c2ccc(C#N)c3nccnc23)C[C@H](CN2CCN(c3cc4c(cn3)CCN[C@@H]4C)CC2)O1 (single isomer, unassigned) [Example 87]",97 nM
2,"[2H]c1nc2c(C#N)ccc(N3C[C@H](CN4CCN(c5ccc6c(n5)CN[C@@H]6C)CC4)O[C@H](C)C3)c2nc1[2H] (single isomer, unassigned) [Example 97]",110 nM
3,"[2H]c1ccc2c(N3C[C@H](CN4CCN(c5ccc6c(n5)CN[C@@H]6C)CC4)O[C@H](C)C3)ccc(C#N)c2n1 (single isomer, unassigned) [Example 98]",91 nM
4,"[2H]c1nc2c(C#N)ccc(N3C[C@H](CN4CCN(c5cc6c(cn5)[C@@H](C)NCC6)CC4)O[C@H](C)C3)c2nc1[2H] (single isomer, unassigned) [Example 95]",103 nM
5,"[2H]c1nc2c(C#N)ccc(N3C[C@H](CN4CCN(c5ccc6c(n5)CN[C@H]6C)CC4)O[C@H](C)C3)c2nc1[2H] (single isomer, unassigned) [Example 96]",116 nM
6,"C[C@@H]1CN(c2ccc(C#N)c3nccnc23)C[C@H](CN2CCN(c3cc4c(cn3)[C@@H](C)NCC4)CC2)O1 (single isomer, unassigned) [Example 86]",117 nM

# Compounds with a lower IC50, results first:
row,IC50,Compound
1,69 nM,"[2H]c1ccc2c(N3C[C@H](CN4CCN(c5ccc6c(n5)CN[C@H]6C)CC4)O[C@H](C)C3)ccc(C#N)c2n1 (single isomer, unassigned) [Example 99]"
2,77 nM,"C[C@@H]1CN(c2ccc(C#N)c3ncccc23)C[C@H](CN2CCN(c3ccc4c(c3)CNCC4)CC2)O1 [Example 9, 5-[(2R,6S)-2-methyl-6-[[4-(1,2,3,4-tetrahydroisoquinolin-7-yl)piperazin-1-yl]methyl]morpholin-4-yl]quinoline-8-carbonitrile]"
3,53 nM,"C[C@@H]1CN(c2ccc(C#N)c3ncccc23)C[C@H](CN2CCN(c3cnc4c(c3)CNC4)CC2)O1 [Example 10, 5-[(2S,6R)-2-[[4-(6,7-dihydro-5H-pyrrolo[3,4-b]pyridin-3-yl)piperazin-1-yl]methyl]-6-methyl-morpholin-4-yl] quinoline-8-carbonitrile]"
4,73 nM,"C[C@@H]1CN(c2ccc(C#N)c3nccnc23)C[C@H](CN2CCN(c3cc4c(cn3)CCN[C@H]4C)CC2)O1 (single isomer, unassigned) [Example 88]"
5,71 nM,"[2H]c1nc2c(C#N)ccc(N3C[C@H](CN4CCN(c5cc6c(cn5)[C@H](C)NCC6)CC4)O[C@H](C)C3)c2nc1[2H] (single isomer, unassigned) [Example 94]"
